Here are results for four compounds from publication PMC7000521, “Hazard Characterization of Synthetic Cathinones Using Viability, Monoamine Reuptake, and Neuronal Activity Assays” (Frontiers in Neuroscience, 2020).

Structures are written as SMILES. Where two headings read alike, the source gives them in different places. Marks after values point to notes of the source that are not given here. Bounds are passed on as bounds.

Data set [1] concerns rat primary cortical cultures. Description: MEA recordings of spontaneous neuronal network activity. It is filed as cell-based. The conditions noted are these: value [CI]. The protocol: Rat pups born of timed-pregnant Wistar rats (Envigo, Horst, Netherlands) were sacrificed on postnatal day 0–1 to prepare cortical cultures grown on MEA plates as described previously ([Zwartsen et al., 2018], [2019]). Briefly, a 50 μL drop of cell suspension was added to each well (1 × 10^5 cells/well) of a 48-well MEA plate (Axion BioSystems Inc., Atlanta, GA, United States, M768-GL1-30Pt200) coated with 0.1% polyethyleneimine (PEI). After 2 h, 450 μL dissection medium was added to each well. The day after the isolation (day in vitro 1; DIV1), 450 μL/well dissection medium was replaced with 450 μL/well glutamate medium. At DIV4, 450 μL/well glutamate medium was replaced with 450 μL/well FBS medium (for medium supplements see [Zwartsen et al., 2018], [2019]). Cultures were kept in FBS medium at 37°C, 5% CO2/95% air atmosphere until use at DIV9-10.
Microelectrode array recordings were performed as described in [Zwartsen et al. (2019)]. In short, neuronal activity was measured using a Maestro 768-channel amplifier (Axion BioSystems Inc., Atlanta, GA, United States). Baseline spontaneous neuronal activity was recorded for 30 min at 37°C, after which wells were exposed to selected synthetic cathinones under sterile conditions. Next, neuronal activity was determined during a 30 min “acute exposure” recording. […] Next, exposure medium was replaced with fresh FBS medium and the plate was incubated for 19 h at 37°C, until the 30 min “washout” recording, i.e., 24 h after the start of the exposure.
Effects of 3-MMC, 4-MMC, 4-MEC, pentedrone, 3-MMCinternet, and 4-MECinternet were tested at 1–1000 μM (final concentration). At the day of exposure, stocks and dilutions were freshly made in NB-A FBS medium (for medium supplements see [Zwartsen et al., 2019]). Data on methylone, α-PVP, and MDPV exposure have been published previously in [Zwartsen et al. (2019)]. For each experimental condition, primary cultures from two to three different isolations were used and tested in four to five plates (Nplates). The number of wells (nwells) represents the number of replicates per condition.
Microelectrode array data were analyzed as described in [Zwartsen et al. (2019)]. In short, parameters of interest after acute exposure were expressed as a percentage of the parameters prior to exposure to obtain a treatment ratio for each well (paired comparison; parameterexposure/parameterbaseline as % of control wells). The parameters after prolonged exposure and washout were also expressed as a percentage of the baseline parameters. Next, treatment ratios were grouped per parameter, condition, drug [e.g., mean spike rate (MSR) 10 μM 3-MMC] and exposure scenario (acute, prolonged, or washout).
Outliers (>mean ± 2×SD) for MSR (5.0%) were used to exclude wells on all parameters. Outliers for mean burst rate (MBR; 2.6%) and mean network burst rate (MNBR; 1.4%) were used to exclude wells on specific parameters (burst, network burst, and synchronicity parameters, or network burst and synchronicity parameters, respectively). Finally, the acute, prolonged, and washout control treatment ratios were set to 100% and treatment ratios of exposed wells were normalized to the average treatment ratio of medium control wells of the corresponding parameter and exposure scenario. Treatment ratios of exposed wells were averaged per parameter (e.g., MSR), condition (e.g., 100 μM), drug (e.g., methylone), and exposure scenario (e.g., acute exposure) and used for further statistical analyses [see [Zwartsen et al. (2019)] for more details on criteria, parameters, and exposure scenarios]. Neuronal activity (as % of control) is expressed as mean ± SEM of nwells from Nplates. As the spike, burst, and network burst rates were among the most sensitive parameters, these parameters are presented in the manuscript. Additional parameters are presented in Supplementary Figure 2.
Concentration–response curves were made for transporter, MEA, and cell viability assays. […]

Another data set deals with T1, hDAT (Homo sapiens, UniProt Q01959).
T1 construct: expressed in transfected cells
T1 sequence (Q01959 whole entry): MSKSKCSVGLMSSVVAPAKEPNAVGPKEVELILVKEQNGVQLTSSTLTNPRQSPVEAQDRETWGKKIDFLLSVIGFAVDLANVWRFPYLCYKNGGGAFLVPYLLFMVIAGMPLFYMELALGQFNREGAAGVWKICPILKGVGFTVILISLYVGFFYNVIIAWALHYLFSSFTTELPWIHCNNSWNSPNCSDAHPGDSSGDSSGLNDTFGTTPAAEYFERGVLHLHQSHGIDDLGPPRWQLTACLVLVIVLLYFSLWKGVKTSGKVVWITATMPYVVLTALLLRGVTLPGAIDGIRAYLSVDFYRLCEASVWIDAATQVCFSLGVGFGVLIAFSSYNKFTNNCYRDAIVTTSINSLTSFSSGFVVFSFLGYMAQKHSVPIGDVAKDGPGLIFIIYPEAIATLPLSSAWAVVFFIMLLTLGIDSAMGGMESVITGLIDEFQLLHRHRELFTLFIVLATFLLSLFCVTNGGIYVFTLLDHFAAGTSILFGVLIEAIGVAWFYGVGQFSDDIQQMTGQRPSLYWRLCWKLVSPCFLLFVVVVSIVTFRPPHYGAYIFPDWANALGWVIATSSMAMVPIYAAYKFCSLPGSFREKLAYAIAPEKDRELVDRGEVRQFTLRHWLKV
Description: Monoamine uptake assay (fluorescent substrate), hDAT. Format: cell-based. The procedure: (§1) Human embryonic kidney (HEK) 293 cells stably expressing human DAT, NET, or SERT (kindly provided by Dr. Hoener from F. Hoffmann-La Roche Ltd., Basel, Switzerland) were cultured as described in [Zwartsen et al. (2017)].
(§2) Uptake activity of hNET, hDAT, and hSERT was measured using the Neurotransmitter Transporter Uptake Assay Kit from MDS Analytical Technologies (Sunnyvale, CA, United States) as described in detail previously ([Zwartsen et al., 2017]). The kit contained a mixture consisting of a fluorescent substrate, which resembles the biogenic amine neurotransmitters, and a masking dye that extinguishes extracellular fluorescence. Uptake of the fluorescent substrate, a measure of neurotransmitter transporter function, increases intracellular fluorescence, while extracellular fluorescence is blocked by the masking dye ([Jorgensen et al., 2008]). The mixture was dissolved in Hank’s Balanced Salt Solution (1×) (HBSS) with 20 mM HEPES, and kept up to 1 week at −20°C.
On day 0, HEK 293 cells were seeded (60,000 cells/well) in clear-bottom black-walled 96-well plates coated with poly-L-lysine (PLL, 50 mg/L). On day 1, cells were pre-incubated with the fluorescent substrate mixture (95 μL/well, comprising of the fluorescent substrate and the extracellular masking dye, dissolved in HBSS) for 12 min (t = −12 to t = 0). During incubation, intracellular fluorescence was measured every 3 min. […] Stock solutions and dilutions were freshly prepared in HBSS (1×) at the day of usage. Effects of 3-MMC, 4-MMC, 4-MEC, methylone, pentedrone, MDPV, 3-MMCinternet, and 4-MECinternet were measured at final concentrations of 0.03–300/1000 μM. Fluorescence was measured with a microplate reader (Tecan Infinite M200 microplate; Tecan Trading Männedorf, Switzerland) at 37°C at 430/515 nm excitation/emission wavelength. For more experimental detail see [Zwartsen et al. (2017)].
Data from the monoamine uptake assay were analyzed as described by [Zwartsen et al. (2017)], with minor modifications. Data for α-PVP were reanalyzed from [Zwartsen et al. (2017)]. In short, the fluorescence of each well was background corrected and uptake was determined per well by calculating the change in fluorescence (ΔFU) at 12 min after drug exposure (t = 12) compared to the fluorescence at the start of exposure (t = 0), as a percentage of the fluorescence at the start of exposure (%ΔFU = ((FUt = 12−FUt = 0)/FUt = 0)∗100%; see [Zwartsen et al., 2017]). Plate-matched control values for each compound (e.g., methylone) above or below two times the standard deviation of the average normalized control value were considered outliers and were removed from analysis (4.8%). Thereafter, uptake in drug-exposed wells was expressed as a percentage of control wells on the same plate and all uptake values were scaled between 0 and 100%. Outliers (>mean ± 2×SD) in exposed groups were removed (2.7%) and uptake (% compared to control) was expressed as mean ± SEM of nwells from Nplates.
Concentration–response curves were made for transporter, MEA, and cell viability assays. To calculate IC50 values, a four-parameter logistic curve with a variable slope was used (Y = Bottom + (Top−Bottom)/(1 + 10∧((LogIC50 − X) ^∗ HillSlo pe))) (GraphPad Prism, version 7.04). When applicable, significance between concentrations and controls (for MEA) and different IC50 values [between different transporters (DAT/NET/SERT), MEA parameters (MSR/MBR/MNBR), exposure settings (acute/prolonged/recovery), and drug grade (pharmaceutical/internet)] were determined using unpaired t-tests (two values) or one-way ANOVA’s followed by a post hoc Dunnet’s test (>2 values). All statistical tests were performed using GraphPad Prism. For recovery of neuronal activity, IC50 values and 95% confidence intervals could not always be determined and are reported as higher than the highest concentration tested (e.g., >1000 μM). […]

The next data set concerns the target T2, hSERT (Homo sapiens, UniProt P31645).
T2 construct: expressed in transfected cells
The following applies: cited from earlier work.

Data set [2] has as its system rat primary cortical cultures. Details: method as in Zwartsen et al., 2019. The conditions noted are these: 2019, cited from earlier work; for IC50: value [CI], published previously ref Zwartsen et al.
Data set [3] is described as follows: Brain partitioning factor (BPF). The conditions noted are these: brain concentration divided by blood/serum/plasma concentration from human post mortem reports or animal studies (rat/mice). From the text: (§3) To correlate reported effect concentrations to expected concentrations in the human brain during recreational use a brain partitioning factor (BPF; […]) was applied, as actual human brain concentrations following recreational drug use are unknown. Expected concentrations in the human brain were estimated by multiplying recreational human blood/serum/plasma concentrations with the BPF. Human recreational blood, serum, or plasma levels were obtained from literature (driving under the influence or accidental non-fatal intoxications). The BPF was determined for each drug by dividing the brain concentration by the blood/serum/plasma concentration found in human post mortem reports, or animal studies (rat/mice) when human data were insufficient.

The conditions of data set [4]: recreational use (driving under the influence or accidental non-fatal intoxications); ref literature; cited from earlier work.
The target of the next data set is T3, hNET (Homo sapiens, UniProt P23975).
T3 construct: expressed in transfected cells
T3 sequence (P23975 whole entry): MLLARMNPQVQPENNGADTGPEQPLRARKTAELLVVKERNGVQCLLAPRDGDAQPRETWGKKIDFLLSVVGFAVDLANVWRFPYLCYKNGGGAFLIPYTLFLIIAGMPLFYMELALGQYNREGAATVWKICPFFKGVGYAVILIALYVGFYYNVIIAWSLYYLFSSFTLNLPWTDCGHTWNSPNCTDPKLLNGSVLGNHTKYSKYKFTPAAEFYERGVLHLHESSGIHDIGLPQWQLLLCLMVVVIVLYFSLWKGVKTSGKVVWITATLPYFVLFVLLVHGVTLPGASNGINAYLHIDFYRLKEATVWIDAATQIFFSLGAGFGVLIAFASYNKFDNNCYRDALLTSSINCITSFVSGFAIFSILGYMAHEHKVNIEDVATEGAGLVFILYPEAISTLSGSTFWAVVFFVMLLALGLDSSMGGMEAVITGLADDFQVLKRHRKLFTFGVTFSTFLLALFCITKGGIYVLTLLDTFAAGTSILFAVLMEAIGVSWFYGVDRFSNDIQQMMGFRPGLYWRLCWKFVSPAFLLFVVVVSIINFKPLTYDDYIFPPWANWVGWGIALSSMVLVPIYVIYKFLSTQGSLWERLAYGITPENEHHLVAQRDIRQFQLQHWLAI
Kind of data set: Monoamine uptake assay (fluorescent substrate), hNET. Format: cell-based. The procedure:
as §1
as §2, with “The mixture was dissolved in Hank’s Balanced Salt Solution (1×) (HBSS) with 20 mM HEPES, and kept up to 1 week at −20°C.” left out
On day 0, HEK 293 cells were seeded (60,000 cells/well) in clear-bottom black-walled 96-well plates coated with poly-L-lysine (PLL, 50 mg/L). […] During incubation, intracellular fluorescence was measured every 3 min. […] Effects of 3-MMC, 4-MMC, 4-MEC, methylone, pentedrone, MDPV, 3-MMCinternet, and 4-MECinternet were measured at final concentrations of 0.03–300/1000 μM. Fluorescence was measured with a microplate reader (Tecan Infinite M200 microplate; Tecan Trading Männedorf, Switzerland) at 37°C at 430/515 nm excitation/emission wavelength. […]

A short description of data set [5]: Estimated human brain concentrations and comparison with IC50 values. The conditions noted are these: recreational human blood/serum/plasma concentration multiplied with BPF.
Excerpt: as §3
To identify the relevance of effects and potentially harmful drugs, effect concentrations (IC50 values) were related to the estimated human brain concentration during recreational use [(brain), Table 2]. By comparing these concentrations, the most relevant neurotoxic mechanisms of cathinones can be identified. […] Only 4-MEC and MDPV inhibited neuronal activity during acute exposure at concentrations within (MDPV) or close to (4-MEC) the estimated brain concentration.

The mark [6] stands for this setting: 19 h washout, 24 h after start of exposure, read-out: Neuronal activity IC50, mean burst rate (MBR), recovery.
[7] abbreviates: 19 h washout, 24 h after start of exposure, read-out: Neuronal activity IC50, mean network burst rate (MNBR), recovery.
[8] abbreviates: acute exposure 30 min, read-out: Neuronal activity IC50, mean network burst rate (MNBR), acute.
[9] abbreviates: acute exposure 30 min, read-out: Neuronal activity IC50, mean burst rate (MBR), acute.
The mark [10] stands for this setting: acute exposure 30 min, read-out: Neuronal activity IC50, mean spike rate (MSR), acute.

T2 sequence (P31645 whole entry): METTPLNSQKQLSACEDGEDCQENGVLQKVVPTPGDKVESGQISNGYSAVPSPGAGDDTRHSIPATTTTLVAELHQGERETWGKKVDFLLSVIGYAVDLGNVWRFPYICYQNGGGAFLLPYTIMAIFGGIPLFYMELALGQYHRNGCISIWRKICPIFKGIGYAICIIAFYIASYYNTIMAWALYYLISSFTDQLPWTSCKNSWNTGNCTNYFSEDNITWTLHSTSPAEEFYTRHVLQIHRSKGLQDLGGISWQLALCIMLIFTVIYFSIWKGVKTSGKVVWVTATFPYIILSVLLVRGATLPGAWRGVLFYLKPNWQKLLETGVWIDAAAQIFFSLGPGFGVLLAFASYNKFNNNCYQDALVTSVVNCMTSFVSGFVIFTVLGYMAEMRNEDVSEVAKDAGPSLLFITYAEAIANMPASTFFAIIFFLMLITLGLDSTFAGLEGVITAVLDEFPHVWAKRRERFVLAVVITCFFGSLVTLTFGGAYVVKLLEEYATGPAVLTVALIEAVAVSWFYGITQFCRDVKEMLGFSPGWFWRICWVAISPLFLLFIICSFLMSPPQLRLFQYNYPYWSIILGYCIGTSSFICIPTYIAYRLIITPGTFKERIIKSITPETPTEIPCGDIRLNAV

Broadly, the IC50 is the concentration that inhibits the measured activity by half. With `CNC(C)C(=O)c1cccc(C)c1` (stereo not shown) [3-MMCinternet], the IC50 in data set [1] (setting [6]) was greater than 1000 µM; in data set [1] (setting [7]) it was greater than 1000 µM; in data set [1] (setting [8]), 57 µM.

`CCNC(C)C(=O)c1ccc(C)cc1` (stereo not shown) [4-MECinternet]: the IC50 on hDAT (HEK 293 cells, 37°C, uptake at 12 min after drug exposure, value [CI], read-out: Transporter inhibition IC50, hDAT) was 1700 nM; in data set [1] (setting [6]), greater than 1000 µM; in data set [1] (setting [7]), greater than 1000 µM; in data set [1] (setting [9]) it was 79 µM; in data set [1] (setting [8]), 79 µM; in data set [1] (setting [10]) it was 70 µM.

On to `CNC(C)Cc1ccc2c(c1)OCO2` (stereo not shown) [MDMA, 3,4-methylenedioxymethamphetamine], for which, on hSERT, the “Increase in potency to inhibit hSERT” value is listed as “threefold”.

With `CNC(C)C(=O)c1ccc2c(c1)OCO2` (stereo not shown) [Methylone, 1-(1,3-benzodioxol-5-yl)-2-(methylamino)propan-1-one], the IC50 in data set [2] (setting [9]) was 266 µM; in data set [2] (setting [8]), 323 µM; in data set [2] (setting [10]), 244 µM; in data set [2] (prolonged exposure 4.5 h, read-out: Neuronal activity IC50, mean burst rate (MBR), prolonged), 322 µM; in data set [2] (prolonged exposure 4.5 h, read-out: Neuronal activity IC50, mean network burst rate (MNBR), prolonged), 362 µM; in data set [2] (prolonged exposure 4.5 h, read-out: Neuronal activity IC50, mean spike rate (MSR), prolonged), 283 µM. Moreover, the IC50 is greater than 1000 µM in data set [2] (washout, 24 h after start of exposure, read-out: Neuronal activity IC50, mean burst rate (MBR), recovery); greater than 1000 µM in data set [2] (washout, 24 h after start of exposure, read-out: Neuronal activity IC50, mean network burst rate (MNBR), recovery); greater than 1000 µM in data set [2] (washout, 24 h after start of exposure, read-out: Neuronal activity IC50, mean spike rate (MSR), recovery); 2000 nM against hDAT; 1700 nM at hNET. For the same compound, the “Reduction of potency to inhibit neuronal activity compared to MDMA” value in data set [2] (methylone versus MDMA, ref Zwartsen et al.) was “threefold”. Moreover, the “Brain partitioning factor (BPF)” value in data set [3] is listed as 1.4–4.5^5,^–6,^7. Besides, in data set [4], the “Human (serum/blood/plasma) concentration” value is 0.01–18^a,d,g,h μM. Besides, the “Estimated human (brain) concentration” value in data set [5] is 0.01 to 81 µM.
